Source: patent US12540129B2, “KIF18A inhibitors” (AMGEN INC., priority 2019, dated 2026)
One block for each molecule: values may come before it.

Target: T1, Recombinant human KIF18A (1-467 His-tagged) protein (Homo sapiens, UniProt Q8NI77)
T1 construct: Recombinant human KIF18A (1-467 His-tagged) protein; His; made in house
Assay: KIF18A Enzyme Assay: microtubule-stimulated ATPase activity (ADP-Glo)
Format: biochemical
Settings: 30 nM KIF18A, 75 μM ATP
Method in brief: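 ADP-Glo luminescence reports ADP produced by His-tagged human KIF18A motor domain (1-467, insect-cell expressed) with microtubules and ATP.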

T1 sequence (Q8NI77 1-467): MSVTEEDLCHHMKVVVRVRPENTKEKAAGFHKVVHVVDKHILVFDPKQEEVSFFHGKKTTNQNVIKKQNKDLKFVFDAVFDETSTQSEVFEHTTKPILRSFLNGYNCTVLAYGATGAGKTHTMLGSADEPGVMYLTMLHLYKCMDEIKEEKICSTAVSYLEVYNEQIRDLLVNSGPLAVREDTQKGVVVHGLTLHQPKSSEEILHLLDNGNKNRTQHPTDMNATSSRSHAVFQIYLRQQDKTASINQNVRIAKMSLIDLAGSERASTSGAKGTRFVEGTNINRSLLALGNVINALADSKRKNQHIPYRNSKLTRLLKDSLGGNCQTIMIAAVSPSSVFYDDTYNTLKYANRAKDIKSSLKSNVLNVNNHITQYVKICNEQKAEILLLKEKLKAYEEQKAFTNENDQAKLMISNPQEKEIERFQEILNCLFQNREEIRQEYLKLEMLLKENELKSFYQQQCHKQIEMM
T1 sequence (P02550 whole entry partner): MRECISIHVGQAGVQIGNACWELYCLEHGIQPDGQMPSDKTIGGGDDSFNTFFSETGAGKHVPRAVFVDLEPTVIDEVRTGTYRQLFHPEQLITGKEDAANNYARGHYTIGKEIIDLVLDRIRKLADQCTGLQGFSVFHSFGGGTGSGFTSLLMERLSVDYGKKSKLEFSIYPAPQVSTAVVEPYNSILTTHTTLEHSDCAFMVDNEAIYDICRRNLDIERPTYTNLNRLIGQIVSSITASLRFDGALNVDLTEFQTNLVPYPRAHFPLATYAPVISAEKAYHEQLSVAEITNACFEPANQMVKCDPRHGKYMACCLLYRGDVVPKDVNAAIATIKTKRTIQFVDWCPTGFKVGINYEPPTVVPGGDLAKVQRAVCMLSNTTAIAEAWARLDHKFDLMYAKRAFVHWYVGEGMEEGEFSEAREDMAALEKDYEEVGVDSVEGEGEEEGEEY
T1 sequence (P02554 whole entry partner): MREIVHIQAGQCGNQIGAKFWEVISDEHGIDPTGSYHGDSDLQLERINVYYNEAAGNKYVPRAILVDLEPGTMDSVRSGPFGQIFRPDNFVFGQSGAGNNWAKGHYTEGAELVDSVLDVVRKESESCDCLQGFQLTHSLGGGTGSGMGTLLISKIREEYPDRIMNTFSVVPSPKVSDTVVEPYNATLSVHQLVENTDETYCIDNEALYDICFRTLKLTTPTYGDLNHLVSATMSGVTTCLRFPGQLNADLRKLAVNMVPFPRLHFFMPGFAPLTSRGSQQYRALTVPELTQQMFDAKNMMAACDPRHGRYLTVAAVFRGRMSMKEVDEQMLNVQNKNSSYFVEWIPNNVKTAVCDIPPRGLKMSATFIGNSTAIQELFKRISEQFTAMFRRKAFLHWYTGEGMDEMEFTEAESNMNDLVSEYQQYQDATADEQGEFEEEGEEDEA

SMILES: CC(C)(C)NS(=O)(=O)c1cccc(NC(=O)c2ccc(N[C@@H]3CCOC[C@H]3O)nc2N2CCC3(CC2)CC3)c1 [Example 102-24, N-(3-(N-(tert-butyl)sulfamoyl)phenyl)-6-(((3S,4R)-3-hydroxytetrahydro-2H-pyran-4-yl)amino)-2-(6-azaspiro[2.5]octan-6-yl)nicotinamide]
- IC50: 259 nM

SMILES: CC(C)(C)NS(=O)(=O)c1cc(NC(=O)c2ccc(NC(C)(C)CO)nc2N2CCC3(CC2)CC3)cc(-c2ccco2)c1 [Example 112, N-(3-(N-(tert-butyl)sulfamoyl)-5-(furan-2-yl)phenyl)-6-((1-hydroxy-2-methylpropan-2-yl)amino)-2-(6-azaspiro[2.5]octan-6-yl)nicotinamide]
- IC50: 170 nM

SMILES: O=C(Nc1cccc(S(=O)(=O)C2CCCC2)c1)c1ccc(NCCO)nc1N1CCC2(CCC2)CC1 [Example 103-24, N-(3-(cyclopentylsulfonyl)phenyl)-6-((2-hydroxyethyl)amino)-2-(7-azaspiro[3.5]nonan-7-yl)nicotinamide]
- IC50: 36 nM

SMILES: CN(C1CCC1)S(=O)(=O)c1cccc(NC(=O)c2cccnc2N2CCC3(CC2)CC3)c1 [Example 101-2, N-(3-(N-cyclobutyl-N-methylsulfamoyl)phenyl)-2-(6-azaspiro[2.5]octan-6-yl)nicotinamide]
- IC50: 610 nM

SMILES: CC1(C)CCN(c2ncccc2C(=O)Nc2cccc(S(=O)(=O)N3CCCCC3)c2)CC1 [Example 100, 2-(4,4-Dimethylpiperidin-1-yl)-N-(3-(piperidin-1-ylsulfonyl)phenyl)nicotinamide]
- IC50: 553 nM

SMILES: O=C(Nc1cccc(S(=O)(=O)C2CCCC2)c1)c1ccc(NC2(CO)COC2)nc1N1CCC2(CC1)CC2 [Example 103-6, N-(3-(cyclopentylsulfonyl)phenyl)-6-((3-(hydroxymethyl)oxetan-3-yl)amino)-2-(6-azaspiro[2.5]octan-6-yl)nicotinamide]
- IC50: 39 nM

SMILES: CN(C)CCNc1ccc(C(=O)Nc2cccc(S(=O)(=O)C3CCCC3)c2)c(N2CCC3(CC2)CC3)n1 [Example 103-22, N-(3-(cyclopentylsulfonyl)phenyl)-6-((2-(dimethylamino)ethyl)amino)-2-(6-azaspiro[2.5]octan-6-yl)nicotinamide]
- IC50: 678 nM

SMILES: COC1CN(c2ccc(C(=O)Nc3cccc(S(=O)(=O)NC(C)(C)C)c3)c(N3CCC4(CC3)CC4)n2)C1 [Example 102-12, N-(3-(N-(tert-butyl)sulfamoyl)phenyl)-6-(3-methoxyazetidin-1-yl)-2-(6-azaspiro[2.5]octan-6-yl)nicotinamide]
- IC50: 591 nM

SMILES: CC(C)(C)NS(=O)(=O)c1cccc(NC(=O)c2ccc(NC3COC3)nc2N2CCC3(CC2)CC3)c1 [Example 102-25, N-(3-(N-(tert-butyl)sulfamoyl)phenyl)-6-(oxctan-3-ylamino)-2-(6-azaspiro[2.5]octan-6-yl)nicotinamide]
- IC50: 84 nM

SMILES: CC(C)(C)NS(=O)(=O)c1cccc(NC(=O)c2ccc(NC3CC(F)(F)C3)nc2N2CCC3(CC2)CC3)c1 [Example 102-17, N-(3-(N-(tert-butyl)sulfamoyl)phenyl)-6-((3,3-difluorocyclobutyl)amino)-2-(6-azaspiro[2.5]octan-6-yl)nicotinamide]
- IC50: 294 nM

SMILES: O=C(Nc1cccc(S(=O)(=O)C2CCCC2)c1)c1ccc(NC2(CO)CCC2)nc1N1CCC2(CC1)CC2 [Example 103-5, N-(3-(cyclopentylsulfonyl)phenyl)-6-((1-(hydroxymethyl)cyclobutyl)amino)-2-(6-azaspiro[2.5]octan-6-yl)nicotinamide]
- IC50: 54 nM

SMILES: O=C(Nc1cccc(S(=O)(=O)C2CCCC2)c1)c1ccc(N2CCOCC2)nc1N1CCC2(CCC2)CC1 [Example 103-27, N-(3-(cyclopentylsulfonyl)phenyl)-6-morpholino-2-(7-azaspiro[3.5]nonan-7-yl)nicotinamide]
- IC50: 688 nM

SMILES: CC(C)(C)NS(=O)(=O)c1cccc(NC(=O)c2ccc(NS(C)(=O)=O)nc2N2CCC3(CC2)CC3)c1 [Example 110, N-(3-(N-(tert-butyl)sulfamoyl)phenyl)-6-(methylsulfonamido)-2-(6-azaspiro[2.5]octan-6-yl)nicotinamide]
- IC50: 91 nM

SMILES: CC(C)(C)NS(=O)(=O)c1cccc(NC(=O)c2ccc(N[C@@H]3CC[C@H](O)C3)nc2N2CCC3(CC2)CC3)c1 [Example 102-22, N-(3-(N-(tert-butyl)sulfamoyl)phenyl)-6-(((1R,3S)-3-hydroxycyclopentyl)amino)-2-(6-azaspiro[2.5]octan-6-yl)nicotinamide]
- IC50: 116 nM

SMILES: CC1(NS(=O)(=O)c2cccc(NC(=O)c3cccnc3N3CCC4(CC3)CC4)c2)CC1 [Example 101-7, N-(3-(N-(1-methylcyclopropyl)sulfamoyl)phenyl)-2-(6-azaspiro[2.5]octan-6-yl)nicotinamide]
- IC50: 320 nM

SMILES: CC(C)(C)NS(=O)(=O)c1cccc(NC(=O)c2ccc(N3C[C@H]4C[C@@H]3CO4)nc2N2CCC3(CC2)CC3)c1 [Example 102-8, 6-((1R,4R)-2-oxa-5-azabicyclo[2.2.1]heptan-5-yl)-N-(3-(N-(tert-butyl)sulfamoyl)phenyl)-2-(6-azaspiro[2.5]octan-6-yl)nicotinamide]
- IC50: 104 nM

SMILES: O=C(Nc1cccc(S(=O)(=O)C2CCCC2)c1)c1ccc(NC2COC2)nc1N1CCC2(CC1)CC2 [Example 103-13, N-(3-(cyclopentylsulfonyl)phenyl)-6-(oxctan-3-ylamino)-2-(6-azaspiro[2.5]octan-6-yl)nicotinamide]
- IC50: 43 nM

Now from value to molecule:

- IC50: 48 nM
SMILES: CC(CO)(CO)Nc1ccc(C(=O)Nc2cccc(S(=O)(=O)NC3CC3)c2)c(N2CCC3(CC2)CC3)n1 [Example 106-6, N-(3-(N-cyclopropylsulfamoyl)phenyl)-6-((1,3-dihydroxy-2-methylpropan-2-yl)amino)-2-(6-azaspiro[2.5]octan-6-yl)nicotinamide]

- IC50: 70 nM
SMILES: CC(C)(C)NS(=O)(=O)c1cc(NC(=O)c2ccc(NC(C)(C)CO)nc2N2CCC3(CC2)CC3)ccc1Cl [Example 105-19, N-(3-(N-(tert-butyl)sulfamoyl)-4-chlorophenyl)-6-((1-hydroxy-2-methylpropan-2-yl)amino)-2-(6-azaspiro[2.5]octan-6-yl)nicotinamide]

- IC50: 177 nM
SMILES: CC(C)(C)NS(=O)(=O)c1cccc(NC(=O)c2ccc(NC(C)(C)CO)nc2N2CCC3(CC2)CC3)c1F [Example 105-23, N-(3-(N-(tert-butyl)sulfamoyl)-2-fluorophenyl)-6-((1-hydroxy-2-methylpropan-2-yl)amino)-2-(6-azaspiro[2.5]octan-6-yl)nicotinamide]

- IC50: 234 nM
SMILES: CC(C)(CO)Nc1ccc(C(=O)Nc2cccc(N3CCCC3)c2)c(N2CCC3(CC2)CC3)n1 [Example 105-26, 6-((1-hydroxy-2-methylpropan-2-yl)amino)-N-(3-(pyrrolidin-1-yl)phenyl)-2-(6-azaspiro[2.5]octan-6-yl)nicotinamide]

- IC50: 58 nM
SMILES: Cc1ccc(NC(=O)c2ccc(NC3(CO)CC3)nc2N2CCC3(CC2)CC3)cc1S(=O)(=O)C1CCCC1 [Example 105-10, N-(3-(cyclopentylsulfonyl)-4-methylphenyl)-6-((1-(hydroxymethyl)cyclopropyl)amino)-2-(6-azaspiro[2.5]octan-6-yl)nicotinamide]

- IC50: 40 nM
SMILES: Cc1ccc(NC(=O)c2ccc(NC(C)(CO)CO)nc2N2CCC3(CC2)CC3)cc1S(=O)(=O)C1CCCC1 [Example 106-4, N-(3-(cyclopentylsulfonyl)-4-methylphenyl)-6-((1,3-dihydroxy-2-methylpropan-2-yl)amino)-2-(6-azaspiro[2.5]octan-6-yl)nicotinamide]

- IC50: 53 nM
SMILES: CC(C)(C)NS(=O)(=O)c1cccc(NC(=O)c2ccc(NC(C)(CO)CO)nc2N2CCC3(CC2)CC3)c1 [Example 106-5, N-(3-(N-(tert-butyl)sulfamoyl)phenyl)-6-((1,3-dihydroxy-2-methylpropan-2-yl)amino)-2-(6-azaspiro[2.5]octan-6-yl)nicotinamide]

- IC50: 208 nM
SMILES: CC(C)(CO)Nc1ccc(C(=O)Nc2cccc(S(=O)(=O)C(C)(C)C(F)(F)F)c2)c(N2CCC3(CC2)CC3)n1 [Example 105-3, 6-((1-hydroxy-2-methylpropan-2-yl)amino)-2-(6-azaspiro[2.5]octan-6-yl)-N-(3-((1,1,1-trifluoro-2-methylpropan-2-yl)sulfonyl)phenyl)nicotinamide]

- IC50: 33 nM
SMILES: CC(C)(CO)Nc1ccc(C(=O)Nc2cccc(S(=O)(=O)NC3CC3)c2)c(N2CCC3(CC2)CC3)n1 [Example 105-14, N-(3-(N-cyclopropylsulfamoyl)phenyl)-6-((1-hydroxy-2-methylpropan-2-yl)amino)-2-(6-azaspiro[2.5]octan-6-yl)nicotinamide]

- IC50: 208 nM
SMILES: C[C@@H]1CN(c2cc(F)cc(NC(=O)c3ccc(NC(C)(C)CO)nc3N3CCC4(CC3)CC4)c2)CCO1 [Example 105-32, (R)-N-(3-fluoro-5-(2-methylmorpholino)phenyl)-6-((1-hydroxy-2-methylpropan-2-yl)amino)-2-(6-azaspiro[2.5]octan-6-yl)nicotinamide]

- IC50: 277 nM
SMILES: Cc1ccc(NC(=O)c2ccc(NC(C)(C)CO)nc2N2CCC3(CC2)CC3)cc1-c1ccco1 [Example 111-2, N-(3-(furan-2-yl)-4-methylphenyl)-6-((1-hydroxy-2-methylpropan-2-yl)amino)-2-(6-azaspiro[2.5]octan-6-yl)nicotinamide]

- IC50: 80 nM
SMILES: CC(C)(CO)Nc1ccc(C(=O)Nc2cccc(S(=O)(=O)C(C)(C)C)c2)c(N2CCC3(CC2)CC3)n1 [Example 105-2, N-(3-(tert-butylsulfonyl)phenyl)-6-((1-hydroxy-2-methylpropan-2-yl)amino)-2-(6-azaspiro[2.5]octan-6-yl)nicotinamide]

- IC50: 116 nM
SMILES: CC(C)(C)NS(=O)(=O)c1cc(NC(=O)c2ccc(NC(C)(C)CO)nc2N2CCC3(CC2)CC3)ccc1F [Example 105-17, N-(3-(N-(tert-butyl)sulfamoyl)-4-fluorophenyl)-6-((1-hydroxy-2-methylpropan-2-yl)amino)-2-(6-azaspiro[2.5]octan-6-yl)nicotinamide]
